From US10844070B2, “Peripherally restricted GABA positive allosteric modulators for the treatment of irritable bowel syndrome and other ailments of the peripheral nervous system” (The Johns Hopkins University, priority 2014, dated 2020)
Entries after “also recorded” stand apart in the source; their conditions may differ.

Legend:
Type in all cases: in vivo
[1] = Stool composition (total stool weight, water content); conditions: stools collected for 3 hours
Experimental: After gavage of Compound 1 (3 and 10 mg/kg), stools were collected immediately after expulsion for 3 hours. The wet stools were weighted as total stool weight followed by dry at 65° C. for 24 hours and weight as dry stool weight. The percent of water content in the stool was calculated by (total stool weight-dry stool weight)/total stool weight x 100.

[2] = Measurement of brain and plasma levels by LC/MS; conditions: mice, 10 mg/kg oral gavage, after 30 minutes
Experimental: Compound 1 was administered to 5 mice at a dose of 10 mg/kg as a solution in 50% propylene glycol by oral gavage (5 ml/kg), After 30 minutes, mice were sacrificed and plasma and brain were harvested. The concentration of Compound 1 in plasma and brain were measured by LC/MS.

[3] = tested on: C57B/6 mice; test: Whole gut transit time (WGTT), carmine red gavage; conditions: 1, 3 and 10 mg/kg by gavage in 50% propylene glycol; statistically significant at all doses
Experimental: Dose responses of the effect of Compound 1 on the whole gut transit time (WGTT) were examined. Compound 1 (0, 1, 3 and 10 mg/kg) in 50% propylene glycol was administrated by gavage (5 ml/kg), followed by gavage of 0.2 ml carmine red solution (6% carmine red in 0.5% methylcellulose) into C57B/6 mice. Mice were then placed in a white cardboard box and the time was recorded as time 0. The color of stool was observed every 10 min until the red dye appeared in stool. The time that first red stool appears was recorded as the ending time. The difference between the ending time and time 0 is used to present WGTT (min).

[4] = tested on: IBS mice; test: Pain sensitivity in IBS mouse model (VMR to colorectal distension)
Experimental: IBS visceral pain model, induced by neonatal rectal irritation. Colonic pain sensitivity to graded colorectal balloon distension (CRD, 15, 30, 50 and 70 mmHg) was determined by visceromotor response (VMR) measured by electromyography of external oblique muscle.

[5] = tested on: C57B/6 mice; test: Distal colon transit time (DCTT), glass bead expulsion; conditions: 3 mg/kg gavage
Experimental: We examined the time course of Compound 1 on distal colon transit time (DCTT) in C57B/6 mice to assess the colon motility. DCTT was performed by gently pushing a 2 mm glass bead into rectal 2 cm and then placing the mouse into a white box (time 0). The time that the glass bead was released from rectal is presented as DCTT (min). Mice were gavaged with 0 or 3 mg/kg of Compound 1 and DTCC was conducted at 30, 60, 90 and 120 min after the administration of Compound 1. […] The increase in the DCTT reached a peak at 90 min and returned at 2 hours after the administration of Compound 1 (FIG. 2).

SMILES: O=C(O)c1nc2n(n1)-c1ccc(Cl)cc1C(c1ccccc1F)=NC2 [Compound 1, 8-Chloro-6-(2-fluorophenyl)-4H-[1,2,4]triazolo[1,5-a][1,4]benzodiazepine-2-carboxylic acid]
- effect on percent of water content in the stool ([1]; 3 mg/kg gavage): not
- effect on total stool weight ([1]; 3 mg/kg gavage): not
- effect on percent of water content in the stool ([1]; 10 mg/kg gavage): significantly reduced
- effect on total stool weight ([1]; 10 mg/kg gavage): significantly reduced
- average plasma concentration [2]: 1061+189 nM
- concentration at 30 min ([2]; mouse, brain, limit of quantitation 62.5 nM): < 62.5 nM
- effect on whole gut transit time (WGTT) [3]: dose-dependently increased WGTT
- effect on hyperalgesia (VMR to CRD) ([4]; IBS mice, 10 mg/kg, Two-Way ANOVA): significantly attenuated the hyperalgesia; also recorded: significantly reduced
- effect on pain sensitivity (VMR to CRD) ([4]; control mice, 10 mg/kg (data not shown)): no effect was observed
- time at which DCTT returned after administration [5]: 2 h
- time at which the increase in DCTT reached a peak [5]: 90 min
- effect on distal colon transit time (DCTT) ([5]; as early as 30 min after gavage): significantly increased the DCTT
